According to the supplement of paper PMC10733146:

What was measured:
Experiment in all cases: viability relative to DMSO control (fraction); higher = less drug effect (more viable cells)
Conditions in all cases: 48 h
[1] = compound: C#CCC(Cc1cnc2nc(N)nc(N)c2n1)c1ccc(C(=O)N[C@@H](CCC(=O)O)C(=O)O)cc1 [Pralatrexate]
Procedure, shortened: (§1)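 Viability is given as CellTiter-Glo luminescence relative to the median of 16 inner DMSO wells. Fresh or cryopreserved primary mononuclear tumour cells from blood, bone marrow (both Ficoll-isolated) or processed lymph node were plated at 4 × 10^4 cells per well in 384-well plates against five pre-plated compound concentrations, one well each. Incubation lasted 48 h at 37 °C and 5% CO2 in RPMI-1640 with penicillin/streptomycin, L-glutamine and human serum.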

[2] = compound: O=C(CCCCCCC(=O)Nc1ccccc1)NO [Vorinostat]
Procedure, shortened: as §1

[3] = compound: C1=N/C2=N/c3ccc(OCCN4CCCC4)c(c3)COC/C=C/COCc3cccc(c3)C(=C1)N2 [Pacritinib]
Procedure, shortened: as §1

[4] = compound: COc1nc(N)nc2c1ncn2[C@@H]1O[C@H](CO)[C@@H](O)[C@@H]1O [Nelarabine]
Procedure, shortened: as §1

[5] = compound: Cn1c(=O)n(-c2ccc(C(C)(C)C#N)cc2)c2c3cc(-c4cnc5ccccc5c4)ccc3ncc21 [BEZ235]
Procedure, shortened: as §1

[6] = compound: O=C(NCC1(c2nc(-c3ccccc3)cs2)CCOCC1)c1cccc(-c2noc(C(F)(F)F)n2)c1 [TMP269]
Procedure, shortened: as §1

[7] = compound: Cc1cn(-c2cc(NC(=O)c3ccc(C)c(Nc4nccc(-c5cccnc5)n4)c3)cc(C(F)(F)F)c2)cn1 [Nilotinib]
Procedure, shortened: as §1

[8] = compound: CC(C)C[C@H](NC(=O)[C@H](Cc1ccccc1)NC(=O)c1cnccn1)B(O)O [Bortezomib]
Procedure, shortened: as §1

[9] = compound: COc1cc(OC)c(/C=C/S(=O)(=O)Cc2ccc(OC)c(NCC(=O)O)c2)c(OC)c1 [Rigosertib]
Procedure, shortened: as §1

[10] = compound: OC[C@H]1O[C@@H](n2cnc3c2N=CNC[C@H]3O)C[C@@H]1O [Pentostatin]
Procedure, shortened: as §1

[11] = compound: CC(C)(O)CNc1nc(Nc2ccnc(C(F)(F)F)c2)nc(-c2cccc(C(F)(F)F)n2)n1 [AG-221 (Enasidinib)]
Procedure, shortened: as §1

[12] = compound: Nc1nc2n[nH]nc2c(=O)[nH]1 [8-Azaguanin]
Procedure, shortened: as §1

[13] = compound: CC[C@]1(O)C[C@H]2CN(CCc3c([nH]c4ccccc34)[C@@](C(=O)OC)(c3cc4c(cc3OC)N(C=O)[C@H]3[C@@](O)(C(=O)OC)[C@H](OC(C)=O)[C@]5(CC)C=CCN6CC[C@]43[C@@H]65)C2)C1 [Vincristine]
Procedure, shortened: as §1

[14] = compound: Cc1ccc(NC(=O)c2ccc(CN3CCN(C)CC3)cc2)cc1Nc1nccc(-c2cccnc2)n1 [Imatinib]
Procedure, shortened: as §1

[15] = compound: COC1=CC(c2cc3ccccc3[nH]2)=N/C1=C\c1[nH]c(C)cc1C [Obatoclax mesylate]
Procedure, shortened: as §1

In the case of primary AML patient cells (S037), the viability ([1]; 0.024 µM) is reported as 1.21, the viability ([1]; 0.12 µM) is reported as 0.971 and the viability ([1]; 0.6 µM) is reported as 0.96. The viability ([1]; 3 µM) was 1.03, the viability ([1]; 15 µM) was 0.986 and the viability ([2]; 0.016 µM) was 1.21. The viability ([2]; 0.08 µM) was 0.988, the viability ([2]; 0.4 µM) was 0.703 and the viability ([2]; 2 µM) was 0.469. For the same test system, the viability ([2]; 10 µM) was 0.52, the viability ([3]; 0.024 µM) was 0.99 and the viability ([3]; 0.12 µM) was 1.13. The viability ([3]; 0.6 µM) was 1.02, the viability ([3]; 3 µM) was 0.885 and the viability ([3]; 15 µM) was 0.315. For the same test system, the viability ([4]; 0.024 µM) was 1.06, the viability ([4]; 0.12 µM) was 1.08 and the viability ([4]; 0.6 µM) was 1.05. For the same test system, the viability ([4]; 3 µM) was 1.05, the viability ([4]; 15 µM) was 0.873 and the viability ([5]; 0.024 µM) was 0.931. The viability ([5]; 0.12 µM) was 1.07, the viability ([5]; 0.6 µM) was 0.933 and the viability ([5]; 3 µM) was 1.02. It also gave a viability ([5]; 15 µM) of 0.745, a viability ([6]; 0.024 µM) of 0.984 and a viability ([6]; 0.12 µM) of 0.931. The viability ([6]; 0.6 µM) was 0.976, the viability ([6]; 3 µM) was 0.879 and the viability ([6]; 15 µM) was 0.801. For the same test system, the viability ([7]; 0.016 µM) was 1.11, the viability ([7]; 0.08 µM) was 1.13 and the viability ([7]; 0.4 µM) was 1.07. For the same test system, the viability ([7]; 2 µM) was 1.08, the viability ([7]; 10 µM) was 1.14 and the viability ([8]; 0.008 µM) was 0.879. The viability ([8]; 0.04 µM) was 0.924, the viability ([8]; 0.2 µM) was 0.94 and the viability ([8]; 1 µM) was 0.977. It also gave a viability ([8]; 5 µM) of 0.967, a viability ([9]; 0.008 µM) of 0.937 and a viability ([9]; 0.04 µM) of 1. It also gave a viability ([9]; 0.2 µM) of 0.954, a viability ([9]; 1 µM) of 0.966 and a viability ([9]; 5 µM) of 0.845. It also gave a viability ([10]; 0.03 µM) of 1.02, a viability ([10]; 0.15 µM) of 0.98 and a viability ([10]; 0.75 µM) of 0.954. The viability ([10]; 3.75 µM) was 0.782, the viability ([10]; 18.76 µM) was 0.751 and the viability ([11]; 0.024 µM) was 0.926. It also gave a viability ([11]; 0.12 µM) of 0.854, a viability ([11]; 0.6 µM) of 0.988 and a viability ([11]; 3 µM) of 0.859. The viability ([11]; 15 µM) was 0.89, the viability ([12]; 0.032 µM) was 0.945 and the viability ([12]; 0.16 µM) was 0.958. The viability ([12]; 0.8 µM) was 0.858, the viability ([12]; 4 µM) was 0.698 and the viability ([12]; 20 µM) was 0.54. The viability ([13]; 0.016 µM) was 0.944, the viability ([13]; 0.08 µM) was 0.974 and the viability ([13]; 0.4 µM) was 1.02. The viability ([13]; 2 µM) was 0.777, the viability ([13]; 10 µM) was 0.921 and the viability ([14]; 0.08 µM) was 1.07. For the same test system, the viability ([14]; 0.4 µM) was 1.15, the viability ([14]; 2 µM) was 1.08 and the viability ([15]; 0.024 µM) was 1.02. It also gave a viability ([15]; 0.12 µM) of 0.988, a viability ([15]; 0.6 µM) of 0.897 and a viability ([15]; 3 µM) of 0.799. For the same test system, the viability ([15]; 15 µM) was 0.436.

Work on primary ALL patient cells (S048) yielded a viability ([1]; 0.024 µM) of 0.993, a viability ([1]; 0.12 µM) of 0.895 and a viability ([1]; 0.6 µM) of 0.868. The viability ([1]; 3 µM) was 0.872, the viability ([1]; 15 µM) was 0.844 and the viability ([2]; 0.016 µM) was 0.927. The viability ([2]; 0.08 µM) was 0.723, the viability ([2]; 0.4 µM) was 0.261 and the viability ([2]; 2 µM) was 0.097. It also gave a viability ([2]; 10 µM) of 0.0745, a viability ([3]; 0.024 µM) of 0.907 and a viability ([3]; 0.12 µM) of 0.786. It also gave a viability ([3]; 0.6 µM) of 0.603, a viability ([3]; 3 µM) of 0.591 and a viability ([3]; 15 µM) of 0.0174. For the same test system, the viability ([4]; 0.024 µM) was 1.03, the viability ([4]; 0.12 µM) was 1.04 and the viability ([4]; 0.6 µM) was 0.927. For the same test system, the viability ([4]; 3 µM) was 0.82, the viability ([4]; 15 µM) was 0.587 and the viability ([5]; 0.024 µM) was 0.858. For the same test system, the viability ([5]; 0.12 µM) was 0.846, the viability ([5]; 0.6 µM) was 0.618 and the viability ([5]; 3 µM) was 0.552. It also gave a viability ([5]; 15 µM) of 0.269, a viability ([6]; 0.024 µM) of 0.62 and a viability ([6]; 0.12 µM) of 0.647. The viability ([6]; 0.6 µM) was 0.668, the viability ([6]; 3 µM) was 0.593 and the viability ([6]; 15 µM) was 0.576. For the same test system, the viability ([7]; 0.016 µM) was 1.1, the viability ([7]; 0.08 µM) was 1.2 and the viability ([7]; 0.4 µM) was 1.06. The viability ([7]; 2 µM) was 1.25, the viability ([7]; 10 µM) was 1.11 and the viability ([8]; 0.008 µM) was 0.869. It also gave a viability ([8]; 0.04 µM) of 0.969, a viability ([8]; 0.2 µM) of 0.895 and a viability ([8]; 1 µM) of 0.96. It also gave a viability ([8]; 5 µM) of 0.887, a viability ([9]; 0.008 µM) of 0.879 and a viability ([9]; 0.04 µM) of 0.925. For the same test system, the viability ([9]; 0.2 µM) was 0.84, the viability ([9]; 1 µM) was 0.712 and the viability ([9]; 5 µM) was 0.314. For the same test system, the viability ([10]; 0.03 µM) was 1.1, the viability ([10]; 0.15 µM) was 1 and the viability ([10]; 0.75 µM) was 1.04. The viability ([10]; 3.75 µM) was 0.891, the viability ([10]; 18.76 µM) was 0.851 and the viability ([11]; 0.024 µM) was 0.627. For the same test system, the viability ([11]; 0.12 µM) was 0.633, the viability ([11]; 0.6 µM) was 0.834 and the viability ([11]; 3 µM) was 0.854. It also gave a viability ([11]; 15 µM) of 1.02, a viability ([12]; 0.032 µM) of 0.822 and a viability ([12]; 0.16 µM) of 0.76. It also gave a viability ([12]; 0.8 µM) of 0.424, a viability ([12]; 4 µM) of 0.377 and a viability ([12]; 20 µM) of 0.23. It also gave a viability ([13]; 0.016 µM) of 0.293, a viability ([13]; 0.08 µM) of 0.151 and a viability ([13]; 0.4 µM) of 0.0999. It also gave a viability ([13]; 2 µM) of 0.0818, a viability ([13]; 10 µM) of 0.0695 and a viability ([14]; 0.016 µM) of 1.08. For the same test system, the viability ([14]; 0.08 µM) was 1.08, the viability ([14]; 2 µM) was 1.13 and the viability ([14]; 10 µM) was 1.17. For the same test system, the viability ([15]; 0.024 µM) was 1, the viability ([15]; 0.12 µM) was 1.13 and the viability ([15]; 0.6 µM) was 1.18. For the same test system, the viability ([15]; 3 µM) was 0.583 and the viability ([15]; 15 µM) was 0.0615.
